Experimental data published in PMC2891242 (Bioorganic & medicinal chemistry, 2009).
Entries after “also recorded” stand apart in the source; their conditions may differ. Marks after values point to notes of the source that are not given here.

Tests used:
[1] = tested on: α1-adrenergic receptor; assay: [3H]prazosin displacement from brain membranes; format: binding, Wistar rat; settings: for α1-Adrenergic (% displacement at 3 μM): 3 μM test compound, 0.25 nM [3H]prazosin, duplicate; for α1-adrenergic binding: displacement of ligand at 3 μM
[2] = target: human NR1/NR2B (Homo sapiens, UniProt Q05586+Q13224); assay: Two electrode voltage clamp concentration-effect curve, human NR1/NR2B; format: cell-based
[3] = target: GluR6 (Rattus norvegicus, UniProt P42260); format: cell-based
[4] = target: GluR1 (Rattus norvegicus, UniProt P19490); assay: Two electrode voltage clamp, homomeric GluR1 AMPA receptors in Xenopus oocytes; format: cell-based
[5] = target: human ether-a-go-go potassium channel (hERG) (Homo sapiens, UniProt Q12809); assay: [3H]astemizole displacement, hERG expressed in HEK293 cells; format: binding
[6] = target: NR1/NR2B(ΔATD) (Rattus norvegicus, UniProt Q00960); assay: Two electrode voltage clamp, amino terminal domain deletion mutant NR1/NR2B; format: cell-based; settings: maximal glutamate and glycine
[7] = tested on: voltage-gated Na+ or K+ currents; format: cell-based, rat; settings: 3 μM; cultured cortical neurons; Na+ at −10 mV, K+ at +50 mV
[8] = target: rat NR1/NR2B (Rattus norvegicus, UniProt P35439+Q00960); assay: Two electrode voltage clamp, recombinant NR1/NR2B in Xenopus oocytes; format: cell-based; settings: n = 5
[9] = tested on: MDR1; assay: MDR1-MDCK permeability; format: in vitro ADME; settings: dog, MDCK-MDR1, pH 7.4

Sequence of human ether-a-go-go potassium channel (hERG) (Q12809 whole entry, the tested form may be a part): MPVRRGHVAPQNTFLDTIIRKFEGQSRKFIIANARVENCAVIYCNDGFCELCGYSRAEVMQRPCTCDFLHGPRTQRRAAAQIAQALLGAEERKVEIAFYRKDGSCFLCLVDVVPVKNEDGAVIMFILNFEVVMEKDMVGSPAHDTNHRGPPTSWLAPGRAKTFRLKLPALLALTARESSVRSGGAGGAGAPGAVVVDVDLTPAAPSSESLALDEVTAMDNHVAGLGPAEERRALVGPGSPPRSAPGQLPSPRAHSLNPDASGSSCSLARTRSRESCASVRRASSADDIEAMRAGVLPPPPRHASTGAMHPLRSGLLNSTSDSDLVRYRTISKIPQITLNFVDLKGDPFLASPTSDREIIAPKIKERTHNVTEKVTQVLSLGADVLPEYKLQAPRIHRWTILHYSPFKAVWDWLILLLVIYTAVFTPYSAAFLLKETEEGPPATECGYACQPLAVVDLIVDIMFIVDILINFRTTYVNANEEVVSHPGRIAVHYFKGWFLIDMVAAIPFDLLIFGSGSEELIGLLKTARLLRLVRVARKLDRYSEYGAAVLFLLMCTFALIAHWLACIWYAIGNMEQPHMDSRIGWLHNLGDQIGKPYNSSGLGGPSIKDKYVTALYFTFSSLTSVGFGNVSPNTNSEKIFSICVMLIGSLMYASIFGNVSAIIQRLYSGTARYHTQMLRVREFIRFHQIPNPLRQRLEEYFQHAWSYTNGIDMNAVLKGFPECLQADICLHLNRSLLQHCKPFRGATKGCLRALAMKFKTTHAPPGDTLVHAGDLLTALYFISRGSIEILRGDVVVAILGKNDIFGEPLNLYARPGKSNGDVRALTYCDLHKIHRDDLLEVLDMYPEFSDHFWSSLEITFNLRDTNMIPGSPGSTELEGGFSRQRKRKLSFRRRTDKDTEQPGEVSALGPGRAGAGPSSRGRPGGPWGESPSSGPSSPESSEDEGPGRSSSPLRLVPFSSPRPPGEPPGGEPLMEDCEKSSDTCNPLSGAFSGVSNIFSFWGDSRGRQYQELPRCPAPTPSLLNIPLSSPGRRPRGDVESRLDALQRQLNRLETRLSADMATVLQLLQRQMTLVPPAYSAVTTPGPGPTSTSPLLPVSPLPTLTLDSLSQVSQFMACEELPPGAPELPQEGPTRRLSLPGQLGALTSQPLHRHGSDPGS
Sequence of human NR1/NR2B (Q13224 27-1484, other chains not shown): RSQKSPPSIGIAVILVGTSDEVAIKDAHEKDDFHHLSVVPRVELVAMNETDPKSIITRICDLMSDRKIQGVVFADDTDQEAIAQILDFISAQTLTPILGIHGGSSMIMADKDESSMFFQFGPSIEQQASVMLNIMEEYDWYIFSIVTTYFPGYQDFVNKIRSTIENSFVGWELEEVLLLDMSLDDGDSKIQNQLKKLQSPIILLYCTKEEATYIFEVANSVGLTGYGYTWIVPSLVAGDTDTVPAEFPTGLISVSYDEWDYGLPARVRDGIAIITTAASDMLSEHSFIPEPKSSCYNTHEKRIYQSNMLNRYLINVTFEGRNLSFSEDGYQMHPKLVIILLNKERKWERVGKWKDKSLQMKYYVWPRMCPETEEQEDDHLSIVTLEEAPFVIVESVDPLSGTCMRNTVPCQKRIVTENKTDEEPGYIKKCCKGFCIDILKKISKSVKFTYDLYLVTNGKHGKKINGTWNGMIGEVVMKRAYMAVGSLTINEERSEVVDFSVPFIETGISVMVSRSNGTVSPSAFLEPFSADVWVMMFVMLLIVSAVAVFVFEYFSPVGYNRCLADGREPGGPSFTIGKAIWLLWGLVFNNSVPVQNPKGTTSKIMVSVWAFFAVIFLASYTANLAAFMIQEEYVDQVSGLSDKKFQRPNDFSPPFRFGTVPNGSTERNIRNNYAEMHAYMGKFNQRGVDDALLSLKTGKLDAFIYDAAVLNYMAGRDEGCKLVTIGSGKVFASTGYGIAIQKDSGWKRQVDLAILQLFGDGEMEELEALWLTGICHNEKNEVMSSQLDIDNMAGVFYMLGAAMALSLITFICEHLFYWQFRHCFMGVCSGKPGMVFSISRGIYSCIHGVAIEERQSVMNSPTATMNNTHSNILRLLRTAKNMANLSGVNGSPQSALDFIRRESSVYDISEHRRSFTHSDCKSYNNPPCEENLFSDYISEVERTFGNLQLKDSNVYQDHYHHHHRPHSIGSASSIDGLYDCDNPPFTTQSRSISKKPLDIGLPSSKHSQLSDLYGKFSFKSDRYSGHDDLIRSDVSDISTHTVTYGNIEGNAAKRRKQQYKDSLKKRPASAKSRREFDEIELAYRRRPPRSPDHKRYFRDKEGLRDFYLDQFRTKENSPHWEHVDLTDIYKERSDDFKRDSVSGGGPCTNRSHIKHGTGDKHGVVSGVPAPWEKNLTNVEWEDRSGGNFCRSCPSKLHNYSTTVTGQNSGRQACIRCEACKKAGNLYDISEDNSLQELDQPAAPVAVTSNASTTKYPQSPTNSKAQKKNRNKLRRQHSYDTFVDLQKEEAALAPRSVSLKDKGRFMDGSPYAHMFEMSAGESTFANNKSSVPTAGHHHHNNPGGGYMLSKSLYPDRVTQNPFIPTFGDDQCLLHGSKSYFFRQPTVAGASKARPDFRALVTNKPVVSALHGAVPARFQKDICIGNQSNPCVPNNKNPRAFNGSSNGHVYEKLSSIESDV
Sequence of GluR6 (P42260 32-908): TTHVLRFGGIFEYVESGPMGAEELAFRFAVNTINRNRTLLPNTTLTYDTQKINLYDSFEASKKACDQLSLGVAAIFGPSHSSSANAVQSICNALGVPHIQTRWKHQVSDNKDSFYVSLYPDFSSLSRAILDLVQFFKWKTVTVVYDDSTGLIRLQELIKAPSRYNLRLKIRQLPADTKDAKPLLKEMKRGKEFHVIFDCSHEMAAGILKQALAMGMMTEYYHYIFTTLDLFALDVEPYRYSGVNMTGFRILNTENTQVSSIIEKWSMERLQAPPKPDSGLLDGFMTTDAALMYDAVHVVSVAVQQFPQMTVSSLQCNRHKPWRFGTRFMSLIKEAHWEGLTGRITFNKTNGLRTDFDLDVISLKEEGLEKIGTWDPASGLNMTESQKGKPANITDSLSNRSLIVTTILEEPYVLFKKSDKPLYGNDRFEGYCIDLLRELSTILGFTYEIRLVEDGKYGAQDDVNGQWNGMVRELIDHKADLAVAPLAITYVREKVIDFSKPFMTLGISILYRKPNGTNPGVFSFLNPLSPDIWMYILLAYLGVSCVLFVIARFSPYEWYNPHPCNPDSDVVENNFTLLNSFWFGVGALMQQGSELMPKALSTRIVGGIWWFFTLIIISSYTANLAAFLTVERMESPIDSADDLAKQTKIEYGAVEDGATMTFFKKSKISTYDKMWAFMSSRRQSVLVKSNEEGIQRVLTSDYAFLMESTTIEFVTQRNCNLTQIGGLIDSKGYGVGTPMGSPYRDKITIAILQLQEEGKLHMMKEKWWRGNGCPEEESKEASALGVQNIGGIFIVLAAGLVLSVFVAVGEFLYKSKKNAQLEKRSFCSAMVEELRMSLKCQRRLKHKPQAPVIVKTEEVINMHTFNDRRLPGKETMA
Sequence of GluR1 (P19490 19-907): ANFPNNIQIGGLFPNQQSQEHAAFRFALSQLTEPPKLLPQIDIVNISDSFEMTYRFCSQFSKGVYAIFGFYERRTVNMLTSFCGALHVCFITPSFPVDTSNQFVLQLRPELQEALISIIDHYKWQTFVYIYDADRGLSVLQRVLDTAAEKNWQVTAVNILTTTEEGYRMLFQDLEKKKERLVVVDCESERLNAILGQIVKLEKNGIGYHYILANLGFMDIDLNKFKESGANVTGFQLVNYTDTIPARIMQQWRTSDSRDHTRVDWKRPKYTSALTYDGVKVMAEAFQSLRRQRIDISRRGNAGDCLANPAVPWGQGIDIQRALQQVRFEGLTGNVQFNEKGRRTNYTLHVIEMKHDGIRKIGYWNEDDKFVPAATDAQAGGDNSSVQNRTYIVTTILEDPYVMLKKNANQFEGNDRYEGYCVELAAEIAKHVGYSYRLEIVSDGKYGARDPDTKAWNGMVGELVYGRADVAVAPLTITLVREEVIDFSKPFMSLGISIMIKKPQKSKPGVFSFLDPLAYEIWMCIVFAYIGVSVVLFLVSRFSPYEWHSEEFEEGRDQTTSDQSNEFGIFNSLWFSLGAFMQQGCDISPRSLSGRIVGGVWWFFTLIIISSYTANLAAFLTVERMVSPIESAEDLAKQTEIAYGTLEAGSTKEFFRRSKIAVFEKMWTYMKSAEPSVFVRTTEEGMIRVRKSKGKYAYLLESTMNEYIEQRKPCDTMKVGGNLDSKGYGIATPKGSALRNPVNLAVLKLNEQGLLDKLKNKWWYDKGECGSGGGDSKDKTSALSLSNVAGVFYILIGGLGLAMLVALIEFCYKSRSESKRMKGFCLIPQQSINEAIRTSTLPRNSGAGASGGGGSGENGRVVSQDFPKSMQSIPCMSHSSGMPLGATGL

How did the “α1-Adrenergic (% displacement at 3 μM)” value [1] turn out when CS(=O)(=O)Nc1ccc(CCC(=O)NNC(=S)Nc2ccc(Cl)c(Cl)c2)cc1 [Compound 14, 4-(3,4-Dichlorophenyl)-1-(3-(4-(methylsulfonamido)-phenyl)propanoyl)thiosemicarbazide] was run?
The value was <1%.

Which IC50 [2] does the source give for CS(=O)(=O)Nc1ccc(CCC(=O)NNC(=O)Cc2ccc(Cl)c(Cl)c2)cc1 [Compound 16, N’-(2-(3,4-Dichlorophenyl)acetyl)-3-(4-(methylsulfonamido)phenyl)propanehydrazide] here?
Its IC50 is 5.75 µM.

What about the remaining activity at 3 µM ([3]; read-out: GluR6 % response) of the same compound?
Its remaining activity at 3 µM is 97 ± 1%.

What about the remaining activity at 3 µM ([4]; read-out: GluR1 % response) of the same compound?
The remaining activity at 3 µM was 101 ± 0.5%.

CS(=O)(=O)Nc1ccc(CCC(=O)NCCNc2ccc(Cl)c(Cl)c2)cc1 [Compound 49, N-(2-(3,4-Dichlorophenylamino)ethyl)-3-(4-(methylsulfonamido)phenyl)propanamide] was tested. Which “α1-adrenergic binding” value [1] did it give?
The value was “neither amide 49 or 52 showed any α1-adrenergic binding”.

What does the source list for CS(=O)(=O)Nc1ccc(CCC(=O)NC/C=C/c2ccc(Cl)c(Cl)c2)cc1 [Compound 50, N-(3,4-Dichlorocinnamyl)-3-(4-(methylsulfonamido)-phenyl)propanamide]?
α1-adrenergic binding [1]: without actions; hERG (% displacement) at 3 μM ([5]; 3 μM test compound, 1.5 nM [3H]-astemizole): 47 ^* %

How did the “effect on recombinant kainate receptors (GluR6)” value ([3]; 3 μM) turn out when CS(=O)(=O)Nc1ccc(OCC(=O)NCCNc2ccc(Cl)c(Cl)c2)cc1 [Compound 52, N-(2-(3,4-Dichlorophenylamino)ethyl)-2-(4-(meth-ylsulfonamido)phenoxy)acetamide] was run?
The value was “no detectable effects”.

What about the “effect on current response of NR1/NR2B(ΔATD)” value [6] of the same compound?
The value was “virtually no effect”.

What about the “effect on recombinant AMPA (GluR1) receptors” value ([4]; 3 μM) of the same compound?
The value was “no detectable effects”.

And the “effect on voltage-gated Na+ or K+ currents” value [7]?
The value was “no detectable effects”.

What about the “voltage dependence of inhibition” value [8] of the same compound?
Its value is “voltage-independent”.

And the “α1-Adrenergic (% displacement at 3 μM)” value [1]?
Its value is <1%.

And the “α1-adrenergic binding” value [1]?
The value was “neither amide 49 or 52 showed any α1-adrenergic binding; also recorded: minimal”.

What about the Ki [5] of the same compound?
The Ki was ~12 µM.

And the “hERG binding” value [5]?
The value was “minimal”.

Which “α1-Adrenergic (% displacement at 3 μM)” value [1] does the source give for CS(=O)(=O)Nc1ccc(OCC(=O)NCCCc2ccc(Cl)c(Cl)c2)cc1 [Compound 54, N-(3-(3,4-Dichlorophenyl)propyl)-2-(4-(methylsulfonamido)phenoxy)acetamide] here?
The value was <1%.

What about the “α1-adrenergic binding” value [1] of the same compound?
Its value is “negligible”.

And the “hERG binding” value [5]?
Its value is “negligible”.

How did the Papp A→B at 2 h, 5 μM [9] turn out when CS(=O)(=O)Nc1ccc(OCC(=O)N2CCN(c3ccc(Cl)c(Cl)c3)CC2)cc1 [Compound 57, N-(4-(2-(4-(3,4-Dichlorophenyl)piperazin-1-yl)-2-oxoethoxy)phenyl)methanesulfonamide] was run?
The Papp A→B at 2 h, 5 μM was 4.8 ×10⁻⁶ cm/s.

CS(=O)(=O)Nc1ccc(OCCNCC(=O)Nc2ccc(Cl)c(Cl)c2)cc1 [Compound 67, N-(3,4-Dichlorophenyl)-2-(2-(4-(methylsulfonamido)-phenoxy)ethylamino) acetamide] was tested. Which IC50 [2] did it give?
Its IC50 is ~1 µM.

With CS(=O)(=O)Nc1ccc(CCCN2CCN(c3ccc(Cl)c(Cl)c3)C2=O)cc1 [Compound 70, N-(4-(3-(3-(3,4-Dichlorophenyl)-2-oxoimidazolidin-1-yl)propyl)phenyl)methanesulfonamide] as the compound, how does the “α1-Adrenergic (% displacement at 3 μM)” value [1] read?
Its value is <1%.

And the “α1-adrenergic binding” value [1]?
Its value is “negligible”.

Which “α1-adrenergic binding” value [1] does the source give for CS(=O)(=O)Nc1ccc(OCCN2CCN(c3ccc(Cl)c(Cl)c3)C2=O)cc1 [Compound 71, N-(4-(2-(3-(3,4-Dichlorophenyl)-2-oxoimidazolidin-1-yl)ethoxy)phenyl)methanesulfonamide] here?
Its value is “negligible”.
